Test results reported in US8367360B2, “Method of screening for inhibitors of tau protein phosphororylation by tyrosine kinase c-Abl” (Proteome Sciences plc, priority 2004, dated 2013).
Entries after “also recorded” stand apart in the source; their conditions may differ. Each block holds one compound with its values, some of them ahead of it.

Legend:
[1] = test system: primary rat neuronal cultures; test: Amyloid beta treatment of neurons and isolation of lipid rafts; format: cell-based
Procedure: Rat and human primary cortical neuronal cultures were treated with fibrillar Aβ25-35 or Aβ1-42 for 1-30 min. Lipid rafts were prepared from control untreated and Aβ-treated neuronal cultures by scraping the cells from one 80 cm^2 flask into 2 ml 1% Triton X-100 in 25 mM Mes, pH 6.5 containing protease inhibitors. Cells were disrupted by Dounce homgenization. The homogenate was mixed with 2 ml of 90% sucrose (w/v) in 25 mM Mes, 150 mM NaCl pH 6.5 and placed in a 12 ml centrifuge tube. A 5-35% step sucrose gradient was formed by overlaying the homogenate mix with 4 ml of a 35% (w/v) sucrose solution followed by 4 ml of a 5% (w/v) sucrose solution. This was then centrifuged at 39,000 rpm for 18 hr in a Beckman SW41 rotor. 1 ml fractions were collected from the top of each gradient. The lipid raft fraction partitioned at the interface between the 5% (w/v) sucrose layer and the 35% sucrose (w/v) layer, fractions 4 and 5. Lipid raft fractions were concentrated by mixing the raft fractions (4 and 5) with 10 ml dd H2O and centrifuging at 39,000 rpm for 2 h in a Beckman SW41 rotor. The supernatant was aspirated and the remaining pellet was resuspended in 100 μl of 2× sample buffer. Western blots of lipid raft proteins were probed for antibodies to flotillin and protein loading corrected by scanning densitometry. Tau was detected in lipid rafts by probing western blots of lipid raft proteins using a polyclonal anti-tau antibody (DAKO).

[2] = molecular target: V5 tagged human tau mutant Y310F (human) (UniProt P10636); test: cell-based or functional assay
[3] = molecular target: V5 tagged human tau mutant Y394F (human) (UniProt P10636); test: cell-based or functional assay
[4] = molecular target: V5 tagged human tau mutant Y197F (human) (UniProt P10636); test: cell-based or functional assay
[5] = molecular target: V5 tagged human tau mutant Y18F (human) (UniProt P10636); test: cell-based or functional assay
[6] = test system: COS-7 cells transfected with V5 tagged human tau; test: Phosphorylation of tyrosine residues in tau in cultured cells treated with pervanadate; format: cell-based; conditions: 20 minutes, Y394-only mutant and wild-type tau
From the text: In a first set of experiments, COS-7 cells were transiently transfected with V5 tagged human tau longest isoform or with V5 tagged mutants of tau where one tyrosine has been replaced by one phenylalanine (named Y18F, Y29F, Y197F, Y310F and Y394F) constructs. In a second set of experiments, COS-7 cells were transiently transfected with the V5 tagged tau (441) construct or with V5 tagged mutants of tau where only one tyrosine is remaining, the four other tyrosines being replaced by phenyalanine (named Y18-only, Y29-only, Y197-only, Y310-only and Y394-only according to the remaining tyrosine). In order to increase tau tyrosine phosphorylation, cells were treated with the tyrosine phosphatase inhibitor pervanadate for 20 minutes. Cells were harvested in NETF buffer (100 mM NaCl, 2 mM EGTA, 50 mM Tris-Cl pH 7,4 and 50 mM NaF) containing 1% NP-40, 2 mM orthovanadate and protease inhibitors. Samples were precleared with 40 μl of protein G-Sepharose beads, and immunoprecipitations were carried out with monoclonal anti-V5 antibodies preadsorbed on protein G-Sepharose beads. Cells were harvested in NETF lysis buffer containing 1% NP-40 and tau was immunoprecipitated using an anti-V5 antibody. […] Quantification was achieved by scanning the autoradiograms with GS710 Calibrated Imaging Densitometer (Bio-Rad) and measurement of relative optical density with Quantity One 4.0.3 software (Bio-Rad).

[7] = pre-treatment of neuronal cultures with inhibitor before exposure to Aβ

Compound: CC(C)(C)n1nc(-c2ccc(Cl)cc2)c2c(N)ncnc21 [PP2]
- Aβ-induced increase in tyrosine phosphorylation of lipid raft proteins ([1]; inhibitor given with Aβ treatment, primary rat neuronal cultures, western blot of lipid rafts): abrogated
- Aβ-induced recruitment of Fyn to lipid rafts [1, 7]: blocking of the recruitment
- Aβ-induced recruitment/partitioning of tau into lipid rafts [1, 7]: abrogated; also recorded: blocking of the recruitment

- tyrosine phosphorylation of immunoprecipitated tau (4G10 Western blot), CHO cells co-transfected with AblΔXB (% of the wild-type control) [2]: 70
- tyrosine phosphorylation of immunoprecipitated tau (4G10 Western blot), CHO cells co-transfected with AblΔXB (% of the wild-type control) [3]: 25
- tyrosine phosphorylation of immunoprecipitated tau (4G10 Western blot), CHO cells co-transfected with AblΔXB (% of the wild-type control) [4]: 70
Compound: AblΔXB (a constitutively active form of Abl, with deletion of most of the SH3 domain) (enzyme)

Compound: Aβ1-42: fibrillar amyloid β-peptide 1-42 used to treat neurons
- tyrosine phosphorylation of neuronal protein components of lipid rafts ([1]; peptide treatment of primary rat neuronal cultures): rapid increase

- tyrosine phosphorylation of immunoprecipitated tau (4G10 Western blot), CHO cells co-transfected with Fyn (% of the wild-type control) [5]: 50
- tyrosine phosphorylation of immunoprecipitated tau (4G10 Western blot), CHO cells co-transfected with Fyn (% of the wild-type control) [2]: 50
Compound: Fyn tyrosine kinase (expressed from Fyn cDNA in CHO cells) (from UniProt P06241 1-537) (enzyme)

Compound: pervanadate
- tyrosine phosphorylation of tau (4G10 western on immunoprecipitated tau) [6]: induces an increase in tyrosine phosphorylation
